Paper PMC5797143, “Epigenetic modulation of inflammation and synaptic plasticity promotes resilience against stress in mice” (Nature Communications, 2018)

What was measured:
[1] = tested on: DNA-methyltransferase 1 (DNMT1); experiment: Expression of DNA methylation/demethylation enzymes in PBMCs; assay type: cell-based, mouse
Protocol: (§1) To investigate how DHCA may attenuate IL-6 generation, we tested the effect of DHCA on Toll-like receptor-4 mediated signaling pathways. PBMCs were pretreated with DHCA and stimulated with LPS using the same protocol as during screening. Samples were taken at 0, 30 min, 60 min, 6 h and 16 h following LPS stimulation and cell lysates were subjected to a multiplex ELISA assay. […] Based on evidence that DNA methylation at a single CpG in the human IL-6 promoter region effectively alters IL-6 expression, we next tested whether DHCA can modulate IL-6 gene expression through methylation mechanisms. We treated PBMC cells with DHCA and measured the expression of enzymes essential for DNA methylation/demethylation. […] To investigate how methylation influences IL-6 gene expression, we employed the CpG-free luciferase reporter system. […] To test whether DHCA may influence the expression of other pro-inflammatory factors, we measured the level of secreted cytokines following LPS stimulation (Supplementary Fig. 3).
Total RNA from MSN-enriched cultures or brain NAc was isolated using the RNeasy Mini Kit (Qiagen, Valencia, CA, USA) and reverse transcribed. Gene expression was measured in four replicates by quantitative RT-PCR using Maxima SYBR Green master mix (Fermentas) in ABI Prism 7900HT. […]

IL-6 = experiment: LPS-induced IL-6 production in PBMCs (screening, dose response); assay type: cell-based, mouse
Description: BDPP contains a variety of polyphenols. Orally consumed polyphenols are typically bioavailable in various organs and tissues as metabolites (phase II polyphenol conjugates and phenolic acids) following xenobiotic metabolism and gastrointestinal microbiome fermentation. It is possible that some metabolites may counteract the positive effect of the others. Therefore, if supplied as BDPP, the overall benefits might be reduced due to potential ‘cancellation’ effects. By identifying individual metabolites that selectively target key pathological mechanisms (e.g., Rac1 and IL-6) we can greatly improve the efficacy. We and others recently identified 21 BDPP-derived phenolic metabolites that accumulate in blood and/or in the CNS (14 polyphenolic metabolites and 7 phenolic acids, Supplementary Table 1)[25], [28], [33], among which 14 are currently accessible, [34]. We initiated a high-throughput screen of these metabolites for their ability to modulate IL-6 and Rac1. Peripheral blood mononuclear cells (PBMCs) isolated from C57BL/6 mice were pretreated with plasma bioavailable metabolites (Supplementary Table 1) for 16 h followed by stimulation with lipopolysaccharide (LPS) for 16 h. […] In parallel studies, we screened 9 brain bioavailable metabolites using E18 MSN-enriched primary culture.
Whole blood from mice was mixed with complete RPMI media and laid over the Ficoll-Paque Plus (GE Healthcare, Sweden), centrifuged at 2200 r.p.m. for 15 min. The buffy coat containing PBMCs were isolated, washed once with BEP (0.5% BSA, 2 mM EDTA in PBS) and plated out in a 24-well plate at 5 × 10^5/well in culture medium RPMI-1640 supplemented with 20% horse serum, 10% FBS, 2 mM L-glutamine, 25 mM Hepes and 100 U/ml penicillin/streptomycin. PBMCs were treated with various phenolic acids for 16 h and challenged with 7.5 µg/ml LPS. Supernatant was collected by centrifugation following 16 h of LPS stimulation and the levels of IL-6 were measured using the Mouse IL-6 Quantikine ELISA Kit from R & D System.

[2] = tested on: 37 monoaminergic receptors and transporters; experiment: Radioligand binding assay, whole panel; settings: concentrations as high as 10 µM
Protocol: Currently available antidepressants are believed to act by modifying the activity of the brain monoaminergic system, [47]. We evaluated whether Mal-gluc and DHCA directly interact with the monoaminergic system using a radioligand binding assay.
Radioligand binding assays were performed as previously described. Briefly, crude membrane fractions prepared from a stable HEK cell line expressing recombinant receptors were mixed with a radiolabeled specific ligand and 10 µM of competitor compound (DHCA, Mal-gluc, or non-specific ligand). The percentage of radioligand binding was subsequently measured.

[3] = tested on: Toll-like receptor-4 mediated signaling pathways (JNK, p38, ERK, AKT); experiment: Multiplex ELISA of phosphorylated signaling proteins in PBMCs after LPS; assay type: cell-based, mouse
Protocol: as §1, with “system. We cloned a ~280 bp CpG rich DNA segment from the mouse IL-6 promoter into a promoterless CpG-free reporter construct and transfected into N2a cells. We found the CpG-rich IL-6 promoter segment presented no inherent promoter activity as reflected by no differences in luciferase activity compared to the control construct (Fig. 2f). […] We then cloned CpG rich DNA segments from IL-6 introns 1, 3 or 4 into the CpG-free luciferase reporter construct with a minimal EF1 promoter and no enhancer activity. […] In contrast, the CpG-rich region of IL-6 intron 4 presented no observable enhancer activity (Fig. 2g).” for “system.”
Luminex xMAP multiplexed immunoassays were used to evaluate the levels of phosphorylated proteins in PBMCs pre-treated with DHCA for 16 h followed by LPS stimulation. PBMCs were washed once with PBS and immediately lysed with MilliplexMAP Cell Signaling Universal Lysis Buffer and applied to the assay following manufacturer’s instruction (EMD Millipore). The phosphoprotein analytes used were: AKT (Ser473), JNK (Thr183/Tyr185), ERK (Thr185/Tyr187), p38 […] (Millipore, MA). Multiplex MAP mouse cytokine/chemokine Panel (EMD Millipore) was used to measure the levels of 32 cytokines/chemokines in mouse plasma or PBMC cultures.

[4] = 30 min and 60 min following LPS, no further changes at 6 h and 16 h
[5] = PBMCs, DHCA pretreatment, 0, 30 min, 60 min, 6 h, 16 h after LPS

With `O=C(O)CCc1ccc(O)c(O)c1` [DHCA, 3(3,4-dihydroxy-phenyl) propionic acid] the “expression of DNMT1” value [1] was “significantly reduced”, the “primary screening, LPS-induced IL-6 production” value (IL-6; 14 plasma bioavailable metabolites screened) was “most effective in reducing LPS-induced IL-6 production” and the IC50 (IL-6; Mus musculus, PBMC, PBMCs pretreated 16 h, then LPS 16 h, read-out: calculated IC50, reducing LPS-induced IL-6 production) was 17.7 µM. For the same molecule, the EC50 (IL-6; Mus musculus, PBMC, dose response in PBMCs following LPS stimulation, read-out: EC50 (IL-6 response), Fig. 2b) was 17.7 µM, the “binding with any of the 37 receptors and transporters tested” value [2] was “no significant binding” and the “decrease in AKT activation” value [3, 4] was ~ 10%. For the same molecule, the “decrease in ERK activation” value [3, 4] was ~ 10%, the “activation (phosphorylation) of JNK” value [3, 5] was “no effect” and the “activation (phosphorylation) of p38” value [3, 5] was “no effect”.
